The data set has as its system CCRIS mutagenicity, Ames/micronucleus/aberration tests. Nature of the data set: CCRIS mutagenicity studies.
The mark [1] stands for this setting: Test System: AMES SALMONELLA TYPHIMURIUM, Strain/Indicator: TA98, Metabolic Activation: NONE, Method: STANDARD PLATE.
[2] abbreviates: Test System: AMES SALMONELLA TYPHIMURIUM, Strain/Indicator: TA100, Metabolic Activation: NONE, Method: STANDARD PLATE.
Where [3] appears, read: Test System: AMES SALMONELLA TYPHIMURIUM, Strain/Indicator: TA100, Metabolic Activation: RAT, LIVER, S-9, AROCLOR 1254, Method: STANDARD PLATE.
The mark [4] stands for this setting: Test System: AMES SALMONELLA TYPHIMURIUM, Strain/Indicator: TA1535, Metabolic Activation: NONE, Method: STANDARD PLATE.

Activity calls are given as the source filed them. The rule behind the calls is not given here.

As to `C=CC1CO1` (configuration not stated), the mutagenic call by setting is: (End Point: IN VIVO CHROMOSOMAL ABERRATIONS, Test System: BONE MARROW CELLS, Species: MOUSE, Strain/Sex: C57B1/6/MALE, Route: IP INJECTION (ONCE)) “active; positive”; (End Point: IN VIVO MICRONUCLEUS, Test System: BONE MARROW POLYCHROMATIC ERYTHROCYTES, Species: MOUSE, Strain/Sex: C57/BL/MALE, Route: INTRAPERITONEAL INJECTION) “active; positive”; (End Point: IN VIVO MICRONUCLEUS, Test System: PERIPHERAL BLOOD RETICULOCYTES, Species: MOUSE, Strain/Sex: BALB/C/MALE, Route: IP INJECTION, ONCE) “active; positive”; (End Point: IN VIVO MICRONUCLEUS, Test System: SPERMATID, Species: RAT, Strain/Sex: SPRAGUE-DAWLEY/MALE, Route: IP INJECTION) “active; positive”; (End Point: IN VIVO MICRONUCLEUS, Test System: SPERMATIDS, Species: MOUSE, Strain/Sex: (102XC3H)F1/MALE, Route: IP INJECTION) “active; positive only at 14 d and higher dose levels”; (End Point: IN VIVO MICRONUCLEUS, Test System: SPERMATIDS, Species: MOUSE, Strain/Sex: BALB/C/MALE, Route: IP INJECTION, ONCE) “active; positive (positive in golgi-phase and at highest dose after 14 or 16 d)”. Further, the mutagenic call reads like this: (End Point: IN VIVO MICRONUCLEUS, Test System: SPERMATIDS, Species: RAT, Strain/Sex: LEWIS/MALE, Route: IP INJECTION) “active; positive”; (End Point: IN VIVO MICRONUCLEUS, Test System: SPLENOCYTES, Species: MOUSE, Strain/Sex: (102XC3H)F1/MALE, Route: IP INJECTION) “active; positive”; (End Point: IN VIVO MICRONUCLEUS, Test System: SPLENOCYTES, Species: MOUSE, Strain/Sex: BALB/C, Route: IP) “active; positive only for 48.8 mg dose at either 2 or 16 d after treatment”; (End Point: IN VIVO MICRONUCLEUS, Test System: SPLENOCYTES, Species: RAT, Strain/Sex: LEWIS/MALE, Route: IP INJECTION) “active; positive”; under setting [1], “inactive; negative”; (Test System: AMES SALMONELLA TYPHIMURIUM, Strain/Indicator: TA100, Metabolic Activation: HAMSTER, LIVER, S-9, AROCLOR 1254 (10%), Method: PREINCUBATION) “active; positive”. Further, the mutagenic call is “active; positive” (Test System: AMES SALMONELLA TYPHIMURIUM, Strain/Indicator: TA100, Metabolic Activation: NONE, Method: PREINCUBATION); “active; positive” under setting [2]; “active; positive” (Test System: AMES SALMONELLA TYPHIMURIUM, Strain/Indicator: TA100, Metabolic Activation: RAT, LIVER, S-9, AROCLOR 1254 (10%), Method: PREINCUBATION); “active; positive” under setting [3]; “active; positive” (Test System: AMES SALMONELLA TYPHIMURIUM, Strain/Indicator: TA1535, Metabolic Activation: HAMSTER, LIVER, S-9, AROCLOR 1254 (10%), Method: PREINCUBATION); “active; positive” (Test System: AMES SALMONELLA TYPHIMURIUM, Strain/Indicator: TA1535, Metabolic Activation: NONE, Method: PREINCUBATION). In addition, the mutagenic call under setting [4] is “active; positive”; the mutagenic call (Test System: AMES SALMONELLA TYPHIMURIUM, Strain/Indicator: TA1535, Metabolic Activation: RAT, LIVER, S-9, AROCLOR 1254 (10%), Method: PREINCUBATION) is “active; positive”; the mutagenic call (Test System: UDS MOUSE SPERM CELL, Strain/Indicator: THY INCORP, Metabolic Activation: IN VIVO, Method: LIQUID SCINTILLATION COUNTING) was “inactive; negative”; the mutagenic call (Test System: UDS RODENT HEPATOCYTES, Strain/Indicator: THY INCORP (NON-S-PHASE), Metabolic Activation: NONE, Method: AUTORADIOGRAPHY) is “inactive; negative”.
As to `CCCCC(CC)COC(=O)c1ccc(N(C)C)c([N+](=O)[O-])c1` (configuration not stated), the mutagenic call runs as follows: (Test System: AMES SALMONELLA TYPHIMURIUM, Strain/Indicator: TA98, Metabolic Activation: HAMSTER, LIVER, S-9, AROCLOR 1254 (10%), Method: STANDARD PLATE) “active; positive”; (Test System: AMES SALMONELLA TYPHIMURIUM, Strain/Indicator: TA98, Metabolic Activation: HAMSTER, LIVER, S-9, AROCLOR 1254, Method: STANDARD PLATE) “active; positive”; under setting [1], “active; positive”; (Test System: AMES SALMONELLA TYPHIMURIUM, Strain/Indicator: TA98, Metabolic Activation: RAT, LIVER, S-9, AROCLOR 1254 (10%), Method: STANDARD PLATE) “active; positive”; (Test System: AMES SALMONELLA TYPHIMURIUM, Strain/Indicator: TA98, Metabolic Activation: RAT, LIVER, S-9, AROCLOR 1254, Method: STANDARD PLATE) “active; positive”; (Test System: AMES SALMONELLA TYPHIMURIUM, Strain/Indicator: TA100, Metabolic Activation: HAMSTER, LIVER, S-9, AROCLOR 1254 (10%), Method: STANDARD PLATE) “inactive; negative”. The mutagenic call by setting is: (Test System: AMES SALMONELLA TYPHIMURIUM, Strain/Indicator: TA100, Metabolic Activation: HAMSTER, LIVER, S-9, AROCLOR 1254, Method: STANDARD PLATE) “inactive; negative”; under setting [2], “inactive; negative”; (Test System: AMES SALMONELLA TYPHIMURIUM, Strain/Indicator: TA100, Metabolic Activation: RAT, LIVER, S-9, AROCLOR 1254 (10%), Method: STANDARD PLATE) “inactive; negative”; under setting [3], “inactive; negative”; (Test System: AMES SALMONELLA TYPHIMURIUM, Strain/Indicator: TA1535, Metabolic Activation: HAMSTER, LIVER, S-9, AROCLOR 1254 (10%), Method: STANDARD PLATE) “inactive; negative”; (Test System: AMES SALMONELLA TYPHIMURIUM, Strain/Indicator: TA1535, Metabolic Activation: HAMSTER, LIVER, S-9, AROCLOR 1254, Method: STANDARD PLATE) “inactive; negative”. For the same compound, the mutagenic call was “inactive; negative” under setting [4]; “inactive; negative” (Test System: AMES SALMONELLA TYPHIMURIUM, Strain/Indicator: TA1535, Metabolic Activation: RAT, LIVER, S-9, AROCLOR 1254 (10%), Method: STANDARD PLATE); “inactive; negative” (Test System: AMES SALMONELLA TYPHIMURIUM, Strain/Indicator: TA1535, Metabolic Activation: RAT, LIVER, S-9, AROCLOR 1254, Method: STANDARD PLATE); “active; positive” (Test System: AMES SALMONELLA TYPHIMURIUM, Strain/Indicator: TA1537, Metabolic Activation: HAMSTER, LIVER, S-9, AROCLOR 1254 (10%), Method: STANDARD PLATE); “active; positive” (Test System: AMES SALMONELLA TYPHIMURIUM, Strain/Indicator: TA1537, Metabolic Activation: HAMSTER, LIVER, S-9, AROCLOR 1254, Method: STANDARD PLATE); “active; positive” (Test System: AMES SALMONELLA TYPHIMURIUM, Strain/Indicator: TA1537, Metabolic Activation: NONE, Method: STANDARD PLATE). Moreover, the mutagenic call by setting is: (Test System: AMES SALMONELLA TYPHIMURIUM, Strain/Indicator: TA1537, Metabolic Activation: RAT, LIVER, S-9, AROCLOR 1254 (10%), Method: STANDARD PLATE) “active; positive”; (Test System: AMES SALMONELLA TYPHIMURIUM, Strain/Indicator: TA1537, Metabolic Activation: RAT, LIVER, S-9, AROCLOR 1254, Method: STANDARD PLATE) “active; positive”; (Test System: AMES SALMONELLA TYPHIMURIUM, Strain/Indicator: TA1538, Metabolic Activation: HAMSTER, LIVER, S-9, AROCLOR 1254 (10%), Method: STANDARD PLATE) “active; positive”; (Test System: AMES SALMONELLA TYPHIMURIUM, Strain/Indicator: TA1538, Metabolic Activation: HAMSTER, LIVER, S-9, AROCLOR 1254, Method: STANDARD PLATE) “active; positive”; (Test System: AMES SALMONELLA TYPHIMURIUM, Strain/Indicator: TA1538, Metabolic Activation: NONE, Method: STANDARD PLATE) “active; positive”; (Test System: AMES SALMONELLA TYPHIMURIUM, Strain/Indicator: TA1538, Metabolic Activation: RAT, LIVER, S-9, AROCLOR 1254 (10%), Method: STANDARD PLATE) “active; positive”. The mutagenic call (Test System: AMES SALMONELLA TYPHIMURIUM, Strain/Indicator: TA1538, Metabolic Activation: RAT, LIVER, S-9, AROCLOR 1254, Method: STANDARD PLATE) was “active; positive”.

The record behind these values is PubChem BioAssay AID1259407 (Chemical Carcinogenesis Research Information System (CCRIS), 2018).
